Measurements taken from PubChem BioAssay AID1963425 (Molecular Pharmacology Branch, DTP, NCI, 2024).

Tested on: 323965-272-R-J2-PDC complex spheroid growth, % test/control
Experiment: Anticancer human tumor 323965-272-R-J2-PDC patient-derived pancreatic carcinoma cell line growth inhibition [Asc]
Details: for IC50: curve of first compound; for viability, T/C: stronger effect = lower value
How it was run: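 Concentration series start at each agent's clinical Cmax, or at 10 microM when none is established, and drop in half-log steps; agents are applied alone or together to complex spheroids built with HUVEC and hMSC.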
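Also: compound exposure lasted 7 days starting three days after spheroid seeding.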
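For viability, T/C in this document: 100% = DMSO vehicle control wells with viability set relative to vehicle.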

IC50 (second compound 0.0316 µM): 166 nM | IC50 (second compound 0.1 µM): 180 nM | IC50 (second compound 0.316 µM): 116 nM | IC50 (second compound 1 µM): 106 nM | IC50 (second compound 3.16 µM): 77.1 nM | IC50 (second compound 10 µM): 36.5 nM
Structure (SMILES): COc1c(OCCCN2CCOCC2)ccc2c3n(c(=NC(=O)c4cnc(N)nc4)nc12)CCN3 + Cc1c(S(C)(=O)=O)c(-c2cc(F)cc(N3CCN(c4ccc(NS(=O)(=O)c5ccc(NC(CCN6CCC(C(=O)OCCCP(=O)(O)O)CC6)CSc6ccccc6)c(S(=O)(=O)C(F)(F)F)c5)cc4)CC3)c2)c(-c2ccc(Cl)cc2)n1C(C)C
viability, T/C (second compound 0.0316 µM, first compound 0.00316 µM): 110% | viability, T/C (second compound 0.0316 µM, first compound 0.01 µM): 97.1% | viability, T/C (second compound 0.0316 µM, first compound 0.0316 µM): 86.4% | viability, T/C (second compound 0.0316 µM, first compound 0.1 µM): 58.3% | viability, T/C (second compound 0.0316 µM, first compound 0.316 µM): 37.9% | viability, T/C (second compound 0.0316 µM, first compound 1 µM): 24.8% | viability, T/C (second compound 0.1 µM, first compound 0.00316 µM): 100% | viability, T/C (second compound 0.1 µM, first compound 0.01 µM): 99.5% | viability, T/C (second compound 0.1 µM, first compound 0.0316 µM): 73.8% | viability, T/C (second compound 0.1 µM, first compound 0.1 µM): 60.1% | viability, T/C (second compound 0.1 µM, first compound 0.316 µM): 42.4% | viability, T/C (second compound 0.1 µM, first compound 1 µM): 25.8% | viability, T/C (second compound 0.316 µM, first compound 0.00316 µM): 107% | viability, T/C (second compound 0.316 µM, first compound 0.01 µM): 98.9% | viability, T/C (second compound 0.316 µM, first compound 0.0316 µM): 71.5% | viability, T/C (second compound 0.316 µM, first compound 0.1 µM): 49% | viability, T/C (second compound 0.316 µM, first compound 0.316 µM): 42.3% | viability, T/C (second compound 0.316 µM, first compound 1 µM): 23.9% | viability, T/C (second compound 1 µM, first compound 0.00316 µM): 94.1% | viability, T/C (second compound 1 µM, first compound 0.01 µM): 81.8% | viability, T/C (second compound 1 µM, first compound 0.0316 µM): 74.9% | viability, T/C (second compound 1 µM, first compound 0.1 µM): 49.9% | viability, T/C (second compound 1 µM, first compound 0.316 µM): 32.4% | viability, T/C (second compound 1 µM, first compound 1 µM): 23.1% | viability, T/C (second compound 3.16 µM, first compound 0.00316 µM): 73.2% | viability, T/C (second compound 3.16 µM, first compound 0.01 µM): 71.5% | viability, T/C (second compound 3.16 µM, first compound 0.0316 µM): 63.2% | viability, T/C (second compound 3.16 µM, first compound 0.1 µM): 46% | viability, T/C (second compound 3.16 µM, first compound 0.316 µM): 29.4% | viability, T/C (second compound 3.16 µM, first compound 1 µM): 21.3% | viability, T/C (second compound 10 µM, first compound 0.00316 µM): 73.2% | viability, T/C (second compound 10 µM, first compound 0.01 µM): 67.7% | viability, T/C (second compound 10 µM, first compound 0.0316 µM): 48.1% | viability, T/C (second compound 10 µM, first compound 0.1 µM): 39.4% | viability, T/C (second compound 10 µM, first compound 0.316 µM): 28.9% | viability, T/C (second compound 10 µM, first compound 1 µM): 19.3%
